Experiments:
Assay in all cases: PDSP binding screen
Adrenergic alpha2A = biological target: T1, Adrenergic alpha2A (Homo sapiens, UniProt P08913)
T1 sequence (P08913 1-465): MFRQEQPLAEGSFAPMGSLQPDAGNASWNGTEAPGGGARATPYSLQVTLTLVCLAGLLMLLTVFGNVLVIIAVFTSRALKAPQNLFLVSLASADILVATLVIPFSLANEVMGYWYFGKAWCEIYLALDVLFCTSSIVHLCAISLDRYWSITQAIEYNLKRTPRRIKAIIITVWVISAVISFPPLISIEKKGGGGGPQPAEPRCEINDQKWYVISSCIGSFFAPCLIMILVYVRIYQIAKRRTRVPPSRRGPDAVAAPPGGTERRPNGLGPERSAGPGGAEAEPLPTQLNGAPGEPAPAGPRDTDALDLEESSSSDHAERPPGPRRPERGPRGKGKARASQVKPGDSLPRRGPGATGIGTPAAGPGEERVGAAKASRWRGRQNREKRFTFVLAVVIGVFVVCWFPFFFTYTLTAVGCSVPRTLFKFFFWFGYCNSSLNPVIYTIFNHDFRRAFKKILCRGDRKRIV

Muscarinic M5 = biological target: T2, Muscarinic M5 (Homo sapiens, UniProt P08912); details: for inhibition at 10 µM: read-out: Ki (nM) or % inhibition at 10 µM: M5
T2 sequence (P08912 1-532): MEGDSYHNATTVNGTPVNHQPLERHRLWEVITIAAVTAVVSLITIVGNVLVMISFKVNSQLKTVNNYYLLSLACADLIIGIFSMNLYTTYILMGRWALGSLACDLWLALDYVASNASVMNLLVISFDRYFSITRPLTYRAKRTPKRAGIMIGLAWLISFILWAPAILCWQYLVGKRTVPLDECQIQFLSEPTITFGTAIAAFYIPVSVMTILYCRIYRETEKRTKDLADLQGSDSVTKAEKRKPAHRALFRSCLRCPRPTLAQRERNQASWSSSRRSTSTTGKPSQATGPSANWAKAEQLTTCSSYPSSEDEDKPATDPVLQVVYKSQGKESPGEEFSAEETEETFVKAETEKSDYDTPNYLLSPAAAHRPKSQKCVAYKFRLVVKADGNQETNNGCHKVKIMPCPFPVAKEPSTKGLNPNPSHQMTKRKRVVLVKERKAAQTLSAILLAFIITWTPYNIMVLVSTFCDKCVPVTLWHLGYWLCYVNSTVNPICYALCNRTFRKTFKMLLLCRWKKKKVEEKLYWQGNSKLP

Serotonin 5-HT1A = biological target: T3, Serotonin 5-HT1A (Homo sapiens, UniProt P08908)
T3 sequence (P08908 1-422): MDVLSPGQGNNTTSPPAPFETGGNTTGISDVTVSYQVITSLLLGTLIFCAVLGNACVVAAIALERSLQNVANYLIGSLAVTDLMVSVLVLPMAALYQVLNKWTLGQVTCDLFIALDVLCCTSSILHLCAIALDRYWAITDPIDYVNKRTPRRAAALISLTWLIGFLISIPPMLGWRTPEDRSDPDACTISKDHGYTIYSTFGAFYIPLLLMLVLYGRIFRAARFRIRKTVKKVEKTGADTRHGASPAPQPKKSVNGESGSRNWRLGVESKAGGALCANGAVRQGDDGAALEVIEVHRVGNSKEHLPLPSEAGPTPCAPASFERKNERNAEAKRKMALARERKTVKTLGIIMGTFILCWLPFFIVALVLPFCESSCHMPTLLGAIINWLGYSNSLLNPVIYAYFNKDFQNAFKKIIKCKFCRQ

Adrenergic beta2 = Adrenergic beta2 (Homo sapiens, UniProt P07550); details: for inhibition at 10 µM: read-out: Ki (nM) or % inhibition at 10 µM: beta2
Adrenergic beta2, sequence (P07550 whole entry): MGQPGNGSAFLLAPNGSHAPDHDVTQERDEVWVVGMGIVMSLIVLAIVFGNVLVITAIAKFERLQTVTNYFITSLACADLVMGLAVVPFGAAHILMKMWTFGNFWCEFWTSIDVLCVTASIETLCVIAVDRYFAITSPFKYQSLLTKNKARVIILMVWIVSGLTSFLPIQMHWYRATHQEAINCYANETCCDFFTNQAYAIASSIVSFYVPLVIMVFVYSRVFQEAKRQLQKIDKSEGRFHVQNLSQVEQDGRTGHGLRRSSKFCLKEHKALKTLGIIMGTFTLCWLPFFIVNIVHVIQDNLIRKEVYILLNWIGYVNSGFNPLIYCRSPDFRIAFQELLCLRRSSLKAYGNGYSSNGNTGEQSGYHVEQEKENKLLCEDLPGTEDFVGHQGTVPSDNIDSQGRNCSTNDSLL

Adrenergic alpha1B = biological target: T4, Adrenergic alpha1B (Homo sapiens, UniProt P35368); details: for inhibition at 10 µM: read-out: Ki (nM) or % inhibition at 10 µM: alpha1B
T4 sequence (P35368 1-520): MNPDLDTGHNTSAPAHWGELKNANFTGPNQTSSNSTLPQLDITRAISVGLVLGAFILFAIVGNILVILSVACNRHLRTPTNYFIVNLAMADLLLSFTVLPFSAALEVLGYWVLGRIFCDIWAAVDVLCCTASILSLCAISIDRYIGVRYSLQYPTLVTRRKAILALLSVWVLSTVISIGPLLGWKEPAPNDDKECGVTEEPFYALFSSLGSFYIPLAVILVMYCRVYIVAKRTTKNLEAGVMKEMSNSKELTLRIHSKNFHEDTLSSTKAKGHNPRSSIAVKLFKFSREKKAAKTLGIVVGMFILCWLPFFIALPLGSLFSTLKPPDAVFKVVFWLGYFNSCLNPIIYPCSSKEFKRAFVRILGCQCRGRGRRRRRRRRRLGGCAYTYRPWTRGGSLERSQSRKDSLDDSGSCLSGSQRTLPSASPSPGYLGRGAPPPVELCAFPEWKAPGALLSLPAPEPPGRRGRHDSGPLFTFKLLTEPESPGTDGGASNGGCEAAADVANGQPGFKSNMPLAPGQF

Dopamine D5 = Dopamine D5 (Homo sapiens, UniProt P21918); details: for inhibition at 10 µM: read-out: Ki (nM) or % inhibition at 10 µM: D5
Dopamine D5, sequence (P21918 whole entry): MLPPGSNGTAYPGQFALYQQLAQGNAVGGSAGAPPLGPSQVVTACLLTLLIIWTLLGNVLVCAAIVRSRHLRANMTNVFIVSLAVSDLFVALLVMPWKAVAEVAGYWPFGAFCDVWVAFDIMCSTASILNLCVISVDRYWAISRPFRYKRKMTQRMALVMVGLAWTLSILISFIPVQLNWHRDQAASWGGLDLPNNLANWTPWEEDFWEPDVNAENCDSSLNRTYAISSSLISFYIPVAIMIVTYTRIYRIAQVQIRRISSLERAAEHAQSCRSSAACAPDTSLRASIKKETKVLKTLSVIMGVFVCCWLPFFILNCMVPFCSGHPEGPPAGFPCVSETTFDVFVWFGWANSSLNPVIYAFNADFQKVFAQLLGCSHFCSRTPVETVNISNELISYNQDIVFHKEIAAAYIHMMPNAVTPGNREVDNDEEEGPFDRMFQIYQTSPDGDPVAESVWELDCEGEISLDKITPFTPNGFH

Histamine H1 = Histamine H1 (Homo sapiens, UniProt P35367)
Histamine H1, sequence (P35367 whole entry): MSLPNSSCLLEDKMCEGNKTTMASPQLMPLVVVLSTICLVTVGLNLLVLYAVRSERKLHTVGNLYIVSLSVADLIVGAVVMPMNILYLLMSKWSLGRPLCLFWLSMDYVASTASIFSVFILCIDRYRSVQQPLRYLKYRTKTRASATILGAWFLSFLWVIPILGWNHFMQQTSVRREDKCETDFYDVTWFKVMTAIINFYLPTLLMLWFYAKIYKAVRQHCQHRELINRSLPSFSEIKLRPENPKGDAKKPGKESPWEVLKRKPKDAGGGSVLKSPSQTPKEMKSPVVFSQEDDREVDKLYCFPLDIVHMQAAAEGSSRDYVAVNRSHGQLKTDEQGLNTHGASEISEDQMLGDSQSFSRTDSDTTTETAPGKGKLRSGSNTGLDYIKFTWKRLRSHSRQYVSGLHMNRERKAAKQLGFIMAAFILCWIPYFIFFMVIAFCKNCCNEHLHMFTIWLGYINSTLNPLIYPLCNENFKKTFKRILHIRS

Serotonin 5-HT2A = Serotonin 5-HT2A (Homo sapiens, UniProt P28223)
Serotonin 5-HT2A, sequence (P28223 whole entry): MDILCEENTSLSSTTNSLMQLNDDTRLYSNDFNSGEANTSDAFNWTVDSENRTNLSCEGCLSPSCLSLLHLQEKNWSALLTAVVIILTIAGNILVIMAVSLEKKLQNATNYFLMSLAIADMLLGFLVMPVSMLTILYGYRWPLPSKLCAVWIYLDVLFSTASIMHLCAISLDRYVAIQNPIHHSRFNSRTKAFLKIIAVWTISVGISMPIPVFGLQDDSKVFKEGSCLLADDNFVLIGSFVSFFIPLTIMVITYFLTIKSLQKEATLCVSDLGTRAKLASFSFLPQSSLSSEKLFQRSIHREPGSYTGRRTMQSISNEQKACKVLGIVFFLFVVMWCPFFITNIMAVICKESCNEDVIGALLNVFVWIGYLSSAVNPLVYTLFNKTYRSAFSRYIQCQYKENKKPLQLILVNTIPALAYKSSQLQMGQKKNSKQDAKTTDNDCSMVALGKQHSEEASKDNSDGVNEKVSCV

Adrenergic alpha2C = biological target: T5, Adrenergic alpha2C (Homo sapiens, UniProt P18825)
T5 sequence (P18825 1-462): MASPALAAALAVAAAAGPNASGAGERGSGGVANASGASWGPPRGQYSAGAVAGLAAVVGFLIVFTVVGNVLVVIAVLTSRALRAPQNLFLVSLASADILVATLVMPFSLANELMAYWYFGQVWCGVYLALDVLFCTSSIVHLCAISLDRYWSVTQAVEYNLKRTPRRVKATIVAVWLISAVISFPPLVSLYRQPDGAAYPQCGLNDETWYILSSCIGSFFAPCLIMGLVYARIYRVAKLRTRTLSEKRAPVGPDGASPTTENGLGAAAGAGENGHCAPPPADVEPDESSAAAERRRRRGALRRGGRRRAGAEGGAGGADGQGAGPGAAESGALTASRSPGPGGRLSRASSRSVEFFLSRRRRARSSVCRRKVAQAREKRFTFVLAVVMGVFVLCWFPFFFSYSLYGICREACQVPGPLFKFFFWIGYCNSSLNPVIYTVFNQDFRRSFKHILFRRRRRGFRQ

Compound	Ki (Adrenergic alpha2A) [nM]	inhibition at 10 µM (Muscarinic M5) [%]	Ki (Serotonin 5-HT1A) [nM]	Ki (Adrenergic beta2) [nM]	Ki (Adrenergic alpha1B) [nM]	inhibition at 10 µM (Dopamine D5) [%]	Ki (Histamine H1) [nM]	Ki (Serotonin 5-HT2A) [nM]	Ki (Adrenergic alpha2C) [nM]	Ki (Dopamine D5) [nM]	inhibition at 10 µM (Adrenergic beta2) [%]	inhibition at 10 µM (Adrenergic alpha1B) [%]	Ki (Muscarinic M5) [nM]
CCCN(CCCNC(=O)c1ccc(-c2cccs2)cc1)CCNC(=O)c1cc(Br)cc(OC)c1OC [20a, 5-Bromo-2,3-dimethoxy-N-(2-(propyl(3-(4-(thiophen-2-yl)benzamido)propyl)amino)ethyl)benzamide]	740	< 50	194	5830	1400	< 50	1360	617	113	–	–	–	–
CCN(CCCNC(=O)c1ccc(-c2ccsc2)cc1)CCNC(=O)c1cc(Br)cc(OC)c1OC [21g, 5-Bromo-N-(2-(ethyl(3-(4-(thiophen-3-yl)benzamido)propyl)amino)ethyl)-2,3-dimethoxybenzamide]	1160	< 50	3310	616	1630	–	102	276	78	8690	–	–	–
CCN(CCCNC(=O)c1ccsc1)CCNC(=O)c1cc(Br)cc(OC)c1OC [21i, N-(3-((2-(5-Bromo-2,3-dimethoxybenzamido)ethyl)(ethyl)amino)propyl)thiophen-e-3-carboxamide]	3340	< 50	245	–	–	< 50	84	1370	1290	–	< 50	< 50	–
CCN(CCCNC(=O)c1ccc(-c2cccs2)cc1)CCNC(=O)c1cc(Br)cc(OC)c1OC [9a, 5-Bromo-N-(2-(ethyl(3-(4-(thiophen-2-yl)benzamido)propyl)amino)ethyl)-2,3-dimethoxybenzamide]	1350	–	1740	669	2190	–	1490	222	313	1470	–	–	5040
CCN(CCCNC(=O)c1ccc(-c2ccncc2)cc1)CCNC(=O)c1cc(Br)cc(OC)c1OC [21c, 5-Bromo-N-(2-(ethyl(3-(4-(pyridin-4-yl)benzamido)propyl)amino)ethyl)-2,3-dimethoxybenzamide]	2580	–	509	–	–	–	591	727	524	> 10000	< 50	< 50	2390
CCN(CCCNC(=O)c1cc2ccccc2[nH]1)CCNC(=O)c1cc(Br)cc(OC)c1OC [21d, N-(3-((2-(5-Bromo-2,3-dimethoxybenzamido)ethyl)(ethyl)amino)propyl)-1H-indole-2-carboxamide]	2140	–	692	–	> 10000	< 50	0.95	844	532	–	< 50	–	4220
CCN(CCCNC(=O)c1cc2ccccc2n1C)CCNC(=O)c1cc(Br)cc(OC)c1OC [21j, N-(3-((2-(5-Bromo-2,3-dimethoxybenzamido)ethyl)(ethyl)amino)propyl)-1-methyl-1H-indole-2-carboxamide]	3110	< 50	961	> 10000	–	< 50	1470	3140	183	–	–	< 50	–
CCN(CCCNC(=O)c1ccc2ccccc2c1)CCNC(=O)c1cc(Br)cc(OC)c1OC [21a, N-(3-((2-(5-Bromo-2,3-dimethoxybenzamido)ethyl)(ethyl)amino)propyl)-2-naphthamide]	1970	< 50	971	–	3940	< 50	1510	1240	195	–	< 50	–	–
CCN(CCCNC(=O)c1cn2ccccc2n1)CCNC(=O)c1cc(Br)cc(OC)c1OC [21e, N-(3-((2-(5-Bromo-2,3-dimethoxybenzamido)ethyl)(ethyl)amino)propyl)imidazo[1,2-a]pyridine-2-carboxamide]	5570	< 50	575	–	–	< 50	675	1330	1760	–	< 50	< 50	–

From publication PMC9820167, “Design and Synthesis of Conformationally Flexible Scaffold as Bitopic Ligands for Potent D3-Selective Antagonists” (International Journal of Molecular Sciences, 2022)
